Laboratory results: paper PMC12343752, “Functional and structural insights into a thermostable (S)-selective amine transaminase and its improved substrate scope by protein engineering” (Applied Microbiology and Biotechnology, 2025)

Assays:
[1] = molecular target: T1, Sbv333-ATA (Streptomyces odorifer, UniProt A0A7Y6F089); assay: glycine oxidase (GO) coupled assay; acetophenone formation at […] nm; type: biochemical; conditions: 2 mM amine, 50 mM HEPES pH 9.0, room temperature (GO assay)
T1 construct: gene G6W59_16020; 6xHis-tagged, pETite vector, E. coli BL21(DE3) with GroES/GroEL, Ni-NTA (plus SEC for crystals); residues 1-459 described; dimer about 100 kDa by gel filtration; catalytic Lys289

[2] = molecular target: Sbv333-ATA, (S)-selective amine transaminase from a Streptomyces strain (Streptomyces sp.); assay: SEC; analytical gel filtration, single peak; methods describe a calibrated Superdex 200 pg HiLoad 16/600 column, 20 mM HEPES pH 9.0, 500 mM NaCl

T1 sequence (A0A7Y6F089 entry or part of it): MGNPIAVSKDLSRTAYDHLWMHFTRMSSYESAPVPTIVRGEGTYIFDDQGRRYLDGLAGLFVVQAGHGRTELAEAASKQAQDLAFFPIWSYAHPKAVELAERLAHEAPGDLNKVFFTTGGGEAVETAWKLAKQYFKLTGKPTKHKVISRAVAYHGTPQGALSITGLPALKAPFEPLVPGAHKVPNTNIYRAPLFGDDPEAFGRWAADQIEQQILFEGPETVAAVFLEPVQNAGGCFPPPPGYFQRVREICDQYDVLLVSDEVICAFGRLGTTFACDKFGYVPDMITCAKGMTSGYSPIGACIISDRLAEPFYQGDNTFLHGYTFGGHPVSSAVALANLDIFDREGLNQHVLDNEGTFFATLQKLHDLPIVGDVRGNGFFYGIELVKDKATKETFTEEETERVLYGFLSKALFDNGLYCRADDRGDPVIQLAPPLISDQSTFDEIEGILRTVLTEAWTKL

Compound | glycine oxidase (GO) coupled assay; acetophenone formation at 245 nm [1] | stoichiometry N [2]
C[C@H](N)c1ccccc1 [compound 1, (S)-methylbenzylamine] | The enzyme was active toward a diverse set of substrates, including (S)-methylbenzylamine ((S)-1) | 
Sbv333-ATA, (S)-selective amine transaminase from a Streptomyces strain (enzyme) |  | 2
